Experiments:
[1] = background statement; cited from earlier work
[2] = background statement; cited from earlier work; remark: listed apart in the source
[3] = Dissolution studies in simulated gastric and intestinal fluids; format: physicochemical
Protocol: The formulation was split into 2 equal aliquots and lyophilized. Simulated gastric and intestinal fluids were prepared, with the simulated gastric fluid consisting of HCl, NaCl, Pepsin, and water while the simulated intestinal fluid consisted of NaOH, KH2PO4, and water. […] This experiment was protected from light. At various time points, 0.5 mL aliquots of fluid were removed from the chambers and analyzed via HPLC. The volume removed was replaced with fresh simulated fluid.

[4] = Stability studies: HPLC of resveratrol remaining in aqueous solution; format: physicochemical
Protocol: The sample can then be analyzed via HPLC to determine the amount of resveratrol in the composition. This amount of resveratrol can be compared to the initially determined amount. This comparison amount can be used to determine the percent degradation.
Stability was determined by HPLC analysis of a 1% PAMAM-G4 amine dendrimer-resveratrol complex at 21° C. (ambient temperature), 37° C., and 4° C. […]

time to dissolution (still dissolving at final time point) ([3]; simulated gastric fluid): > 4.5 h
time to dissolution (still dissolving at final time point) ([3]; simulated intestinal fluid): > 4.5 h
drug remained intact ([4]; 4° C., day 29, aqueous solution): no drug remained
resveratrol remained intact ([4]; ambient temperature (21° C.), day 4, aqueous solution): completely degraded
SMILES: Oc1ccc(C=Cc2cc(O)cc(O)c2)cc1 [Resveratrol, 3,4′,5-trihydroxystilbene]
aqueous solubility [1]: 0.015 to 0.04 µg/mL
half-life [2]: 8 to 14 min
metabolic stability [2]: poor
oral bioavailability [2]: low

From patent US11931321B2, “Compositions comprising a dendrimer-resveratrol complex and methods for making and using the same” (Concordia University, priority 2013, dated 2024)
